Measured values reported in US5521315A, “Olefin substituted long chain compounds” (priority 1993, dated 1996).
Like-named read-outs stand apart in the source and are kept apart here.

What was measured:
mast cell degranulation = assay: Serotonin release assay (inhibition of mast cell degranulation); type: cell-based; conditions: 50 μM; for RELEASE-SPONT / AVERAGE % RELEASE / inhibition at 50 µM: Table 4; for RELEASE-SPONT: average corrected for spontaneous release; for AVERAGE % RELEASE: average of duplicates; for inhibition at 50 µM: Mast cell
How it was run: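 Cultured mast cells loaded with 3H-serotonin and sensitized with anti-DNP IgE for 18 h at 37 °C, then triggered with 40 ng/ml DNP-BSA for 45 min with compound in PIPES isotonic buffer pH 7.1.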

human stromal cells = assay: PDGF-stimulated proliferation of human stromal cells; type: cell-based; conditions: Homo sapiens, 1 h; 50 ng/ml PDGF-BB; drug one hour prior; FIGS. 15 and 16; read-out: IC50, stromal cell proliferation
Method: (§1) This assay is an in vitro model for restenosis and treatment of atherosclerosis and coronary artery disease. Stromal cells were starved in serum-free media for one day and then stimulated with 50 ng/ml PDGF-BB. The drugs were added at the indicated concentrations one hour prior to PDGF stimulation. Tritiated thymidine was added for one day at the time of PDGF stimulation and the cells were harvested and counted by liquid scintillation counting 24 hrs later.
Another assay for measuring activity of the inventive compounds involves determining PDGF (platelet derived growth factor) proliferative response using human-derived stromal cells. […] Two to three days later, the stromal cells are starved in serum-free media. Twenty four hours later, the cells are treated with a stimulating agent, such as PDGF-AA, PDGF-BB or basic FGF (fibroblast growth factor) with or without IL-1α or TNF, and tritiated thymidine. Cell proliferation is determined by liquid scintillation counting.
as §1

[1] = test system: LPS-mediated release of TNF from monocytes in whole blood; assay: Ex vivo human TNF model (LPS-stimulated whole blood); type: cell-based; conditions: lower doses, FIG. 19
Description: FIG. 19 illustrates a comparative experiment comparing CT1508, CT1524, CT1534 and CT2501 in an ex vivo human TNF model described herein. This assay is a predictive model for treatment and prevention of septic shock and sepsis syndrome. This model adds LPS to whole blood (normal human volunteers) to trigger a dose-dependent synthesis and extracellular release of TNF according to Desch et al. (Lymphokine Res. 8:141, 1989). The ex vivo model examines whether LPS-mediated release of TNF from monocytes in whole blood can be blocked by an inventive compound.
This example illustrates a comparative experiment comparing CT1508, CT1524, CT1534 and CT2501 in an ex vivo human TNF model described herein. This assay is a predictive model for treatment and prevention of septic shock and sepsis syndrome. This model adds LPS to whole blood (normal human volunteers) to trigger a dose-dependent synthesis and extracellular release of TNF according to Desch et al. (Lymphokine Res. 8:141, 1989). The ex vivo model examines whether LPS-mediated release of TNF from monocytes in whole blood can be blocked by an inventive compound.

[2] = test system: CMV promoter activity in transformed (adenovirus) cells; assay: CMV promoter assay (gene transcription and translation; cytotoxicity in transformed cells); type: cell-based
How it was run: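 Reporter assay in adenovirus-transformed cells, reading CMV promoter-driven gene transcription and translation; activity reflects cytotoxic inhibition of cellular protein synthesis machinery.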

[3] = test system: murine lymph node cell (T cell) proliferation; assay: Murine lymph node cell proliferation stimulated by antigen; type: cell-based; conditions: Mus musculus, 2 h, drug two hours prior, FIG. 11
Description: A second immune suppression assay measures a T cell component to the immune reaction. Lymph nodes contain a mixture of cells including T cells, B cells and macrophages. Although the proliferating cells in this assay are T cells, the response is also dependent upon an antigen presenting cell such as a macrophage as well as an elaboration of various immunoregulatory cytokines. Murine T cells will proliferate in vitro in response to a soluble o protein antigen if they are first primed with the antigen in vivo. In vivo priming involves emulsifying the antigen (chicken ovalbumin or OVA) in complete Freunds adjuvant and injecting […] of OVA into both hind footpads of adult Balb/c mice. Fourteen days later the draining lymph nodes (popliteal) are removed and a single cell suspension is prepared in RPMI 1640 supplemented with 10% fetal calf serum. The lymph node cells (200,000) are plated into flat-bottom wells and OVA ([…]) and/or drug is added to appropriate wells and incubated for 5 days. Proliferation is determined and IC50's calculated as above.
This example illustrates the effects of four inventive compounds on inhibition of murine lymph node cell proliferation stimulated by antigen. This assays uses murine T cells that proliferate in vitro in response to a soluble protein antigen that is first used to prime the T cells in vivo. […]

murine thymocyte = assay: Murine thymocyte stimulated by ConA and IL-2 (T cell immune suppression); type: cell-based; conditions: FIGS. 8 and 9
[4] = test system: PBMC in mixed lymphocyte assay culture; assay: Percent viable cells in mixed lymphocyte assay culture after six days; type: cell-based, human
[5] = test system: PBMC (peripheral blood mononuclear cells); assay: Two-way mixed lymphocyte reaction (MLR), proliferation of PBMC to allogeneic stimulation; type: cell-based, human; conditions: FIGS. 1 and 2
Description: Various in vitro assays can be used to measure effects of the inventive compounds to module immune activity and have antitumor activity using a variety of cellular types. For example, a mixed lymphocyte reaction (MLR) provides a valuable screening tool to determine biological activity of each inventive compound. In the MLR, PBMCs (peripheral blood mononuclear cells) are obtained by drawing whole blood from healthy volunteers in a heparinized container and diluted with an equal volume of hanks balanced salt solution (HBSS). This mixture is layered on a […] density gradient, such as a Ficoll-Hypaque® gradient (specific gravity 1.08), and centrifuged at 1000×g for 25 minutes at room temperature or cooler. PBMC are obtained from a band at a plasma-Ficoll interface, separated and washed at least twice in a saline solution, such as HBSS. Contaminating red cells are lysed, such as by ACK lysis for 10 min at 37° C., and the PBMCs are washed twice in HBSS. The pellet of purified PBMCs is resuspended in complete medium, such as RPMI 1640 plus 20% human inactivated serum. Proliferative response of PBMC to allogeneic stimulation is determined in a two-way MLR performed in a 96-well microliter plate. Briefly, approximately 10^5 test purified PBMC cells in […] complete medium are co-cultured with approximately 10^5 autologous (control culture) or allogeneic (stimulated culture) PBMC cells, wherein the allogeneic cells are from HLA disparate individuals. Varying doses of compounds (drug) are added at the time of addition of cells to the microtiter plate. The cultures are incubated for 6 days at 37° C. in a 5% CO2 atmosphere. At the conclusion of the incubation tritiated thymidine is added (for example, […] of 40 to 60 Ci/mmole) and proliferation determined by liquid scintillation counting.
This example illustrates a mixed lymphocyte reaction assay of inventive compounds by showing the IC50 value of each compound in this assay and a dose response of several compounds to illustrate an IC50 determination.

[6] = test system: polymorphonuclear leukocytes; conditions: in response to a stimulator of chemotaxis; cited from earlier work
cerebral blood flow = conditions: in vivo; cited from earlier work
LPAAT = assay: Formation of remodeled PA through the PA/DAG pathway (in vitro); type: cell-based; conditions: high PTX concentrations
Description: Even in the presence of PTX, cells continue to form PA through the action of PLD, and DAG is also formed through the action of phospholipase C on PC and PI. The latter pathway is not inhibited by the inventive compounds or PTX. In PTX-treated cells, DAG derived from remodeled and PLA-generated PA is diminished (e.g., 1,2-sn-dioleoyl DAG, 1-alkyl,2-linoleoyl DAG and 1-alkyl,2-docosahexaneolyl DAG). Therefore, the inventive compounds and PTX inhibit the formation of only a certain species of PA and DAG by selectively inhibiting a specific second messenger pathway that is only activated in cells by noxious stimuli, but is not used to signal normal cellular housekeeping functions.

PUMP-1 = PUMP-1 activity induced by 100 U/ml of IL-1; type: cell-based; conditions: IL-1 100 U/ml
Description: Metalloproteases mediate tissue damage such as glomerular diseases of the kidney, joint destruction in arthritis, and lung destruction in emphysema, and play a role in tumor metastases. Three examples of metalloproteases include a 92 kD type V gelatinase induced by TNF, IL-1 and PDGF plus βFGF, a 72 kD type IV collagenase that is usually constitutive and induced by TNF or IL-1, and a stromelysin/PUMP-1 induced by TNF and IL-1. The inventive compounds can inhibit TNF or IL-1 induction of the 92 kD type V gelatinase inducable metalloprotease. Moreover, the inventive compounds can reduce PUMP-1 activity induced by 100 U/ml of IL-1. […] Accordingly, the inventive compounds prevent induction of certain metalloproteases induced by IL-1 or TNF and are not involved with constitutively produced proteases (e.g., 72 kD type IV collagenase) involved in normal tissue remodeling.

[7] = test system: generation of DAG and PA in ras-transformed NIH/3T3 cells; assay: Serum-stimulated generation of DAG and PA in ras-transformed NIH/3T3 cells; type: cell-based; conditions: pretreatment of cells
Description: For example, activating ras mutations result in increased generation of DAG on stimulation with mitogens, although the sources of DAG have differed between experimental systems. In nontransformed renal mesangial cells, IL-1 β stimulation increased PLA2 and LPAAT activation, resulting in generation of sn-2 unsaturated PA and subsequent hydrolysis to DAG by phosphatidate phosphohydrolase. The ras transformation in NIH/3T3 cells upregulates serum-stimulated generation of DAG and PA. The specific species of DAG that is stimulated by serum is dioleoyl and for PA are dilinoleoyl and dioleoyl. […] The inhibition occurs either through suppressing the generation of PA de novo from lysoPA, or through inhibition of one or both arms of the Lands cycle. […] Therefore, the ras transformation mediates an upregulation of PA through indirect stimulation of PLA2 and/or LPAAT activity.

[8] = test system: tumor necrosis factor (TNF); conditions: cited from earlier work
[9] = test system: ras-transformed NIH/3T3 cells

Compound: CC/C=C\CCCCCn1c(=O)c2c(ncn2C)n(C)c1=O [CT1508, 1-(6-cis-nonenyl)-3,7-dimethylxanthine]
- activity in serotonin release assay (mast cell degranulation): increases the activity
- RELEASE-SPONT (mast cell degranulation): 3.38%
- AVERAGE % RELEASE (mast cell degranulation): 19.94%
- inhibition at 50 µM (mast cell degranulation): 57.9%
- IC50 (human stromal cells): < 2 µM
- inhibition of LPS-mediated TNF release [1]: the most effective agent
- IC50 [2]: 75 µM

Compound: C=CCCCCCCCCn1c(=O)c2c(ncn2C)n(C)c1=O [CT1563, 1-(9-Decenyl)-3,7-dimethylxanthine]
- RELEASE-SPONT (mast cell degranulation): 7.43%
- AVERAGE % RELEASE (mast cell degranulation): 23.98%
- inhibition at 50 µM (mast cell degranulation): 7.39%
- IC50 [3]: ~15 µM
- T cell immune suppressing activity (murine thymocyte): potent immune suppressing activity
- cytotoxicity in mixed lymphocyte assay culture ([4]; 100 μM, six days of culture): the most cytotoxic at 100 μM
- therapeutic window ([4]; cytotoxicity at 100 μM vs MLR IC50): significant therapeutic window
- mixed lymphocyte reaction activity [5]: showed activity within dose ranges achievable in vivo
- IC50 [2]: 50 µM

Compound: CC(O)CCCCn1c(=O)c2c(ncn2C)n(C)c1=O (centres unmarked) [M1, 1-(5-hydroxyhexyl)-3,7-dimethylxanthine]
- chemotaxis stimulation [6]: stimulate chemotaxis in polymorphonuclear leukocytes
- cerebral blood flow (cerebral blood flow): increasing cerebral blood flow

Compound: CC(=O)CCCCn1c(=O)c2c(ncn2C)n(C)c1=O [PTX, 1-(5-oxohexyl)-3,7-dimethylxanthine]
- chemotaxis stimulation [6]: stimulate chemotaxis in polymorphonuclear leukocytes
- inhibition of formation of remodeled PA (LPAAT): blocks formation of remodeled PA through the PA/DAG pathway at high PTX concentrations
- PUMP-1 activity, % of control levels (PUMP-1): 95%
- inhibition of DAG/PA generation [7]: blocks generation of these phospholipid second messengers
- TNF levels ([8]; normal volunteers): TNF levels were higher among PTX recipients
- TNF levels ([8]; with GM-CSF, patients undergoing allogeneic bone marrow transplant): decrease tumor necrosis factor (TNF) levels
- cytotoxicity in ras-transformed cells [9]: not associated with significant cytotoxicity
- inhibition of ras-transformed cells ([9]; vs parental cells): inhibits ras-transformed NIH/3T3 cells more than parental cells
